Data as given in patent publication US4748161A, “Triterpenyl esters of organic acids and hypolipidemic agents composed of them” (Amano Pharmaceutical Co., Ltd., priority 1984, dated 1988).
Where two headings read alike, the source gives them in different places.

How the values were obtained:
[1] = system: serum lipids and serum lipid hydroperoxide; experiment: Pharmacological test method B for anti-hyperlipidemic activity (serum lipids, 4 weeks feeding); assay type: in vivo, male Wistar strain rats; parameters: AI Diff.: unit not given here; conditions: for AI [(TC - HDL-C)/(HDL-C)] / HDL-C in serum / LPO in serum / PL in serum / TC in serum / TG in serum: 1% in hyperlipidemic diet, 4 weeks; for change in vivo at 1 % in diet: Rattus norvegicus, po, 672 h; for change in vivo at 1 % in diet / AI Diff. / HDL-C Diff. / LPO Diff. / PL Diff. / TC % of diff. / TC Diff. / TG Diff.: versus control group; for HDL-C rise compared with normal diet group: versus normal diet group
Procedure: Pharmacological test method B for anti-hyperlipidemic acitivity (the term "method B" was used in the present specification)
(§1) Male Wistar strain rats (100±1 g, each 8 rats were formed into a group except that the control group fed with a hyperlipidemic diet was formed of 16 rats) were used as test animals. A powdery diet (CE-2, supplied by Clea Japan, Inc.) was used as ordinary diet. The hyperlipidemic diet was prepared by fortifying the ordinary diet with cholesterol (1%) and cholic acid (0.5%). Each test compound (1%) for administration was admixed with the hyperlipidemic diet. Each two rats were kept in a cage and given the prescribed diet and water ad libitum. Thus the rats were fed for 4 weeks at a constant temperature of 23±1° C. and a constant R.H. of 55±5%. Finally, the rats were fasted from food except water for 16 hours (from 4 p.m. of the 28th test day to 8 a.m. of the 29th test day), and under anesthesia with pentbarbital sodium (tradename: Nembutal), blood was taken from each rat through the descending abdominal arota. Then, TC, HDL-C, TG, PL, and LPO in the serum were measured in the following manner.
A TC kit-K (supplied by Nippon Shoji Kaisha, Ltd.) was used. The principle of this determination is as follows: The ester of cholesterol in the serum is hydrolyzed with cholesterol-ester hydrolase into free cholesterol and fatty acids. All the free cholesterol is oxidized with cholesterol oxydase to form Δ^4 -cholestenone and hydrogen peroxide. Phenol and 4-aminoantipyrin are oxidatively condensed together by the formed hydrogen peroxide and peroxydase. The produced red quinone coloring matter is measured by colorimetry for absorbance at 500 nm using a spectrophotometer, thereby determining the TC:
The color-developing liquid (3.0 ml) is well mixed with the sample serum (0.02 ml). The mixture once heated at 37° C. for 15 minutes, is measured for absorbance at 500 nm with a spectrophotometer. The found absorbance is denoted by EA. On the other hand, the color-developing liquid (3.0 ml) is well mixed with the standard solution. The mixture is treated and measured for absorbance at 500 nm in the same manner as the above. This found absorbance is denoted by ES. Both EA and ES are determined with reference to the value of the blank test conducted using the color-developing liquid (3.0 ml) alone. [formula]
An HDL-C kit-N (supplied by Nippon Shoji Kaisha, Ltd.) was used. […] (VLDL) and lo density lipoprotein (LDL) in the serum is precipitated by the action of heparin. The precipitate is separated by centrifugation. High density lipoprotein (HDL) is dissolved in the separated supernatant. Esters of cholesterol in this fraction is hydrolyzed with cholesterol-ester hydrolase into free cholesterol and fatty acids. All the free cholesterol is oxidized with cholesterol oxydase to form Δ^4 -cholestenone and hydrogen peroxide. Phenol and 4-aminoantipyrine are oxidatively condensed together by the formed hydrogen peroxide and peroxydase. The produced red quinone coloring matter is measured by colorimetry for absorbance at 500 nm using a spectrophotometer, thereby determining the HDL-C.
A PL kit-K (supplied by Nippon Shoji Kaisha, Ltd.) was used for the determination. Lecithin, sphingomyelin, and lysolecithin are decomposed by phospholipase D into choline and phosphatidic acid, N-acylsphingosyl phosphate, or lysophosphatidic acid, respectively. The resulting choline is quantitatively decomposed by choline oxydase into hydrogen peroxide and betaine. With this hydrogen peroxide, and aid of peroxydase, phenol and 4-aminoantipyrin are condensed into red quinone pigment, then the absorbance at 500 nm of which is measured with a spectrophotometer, thereby determining the PL. […]

[2] = Body weight of rats in method B; parameters: species or system male Wistar strain rats; conditions: rat, in vivo
Procedure: as §1

SMILES	AI [(TC - HDL-C)/(HDL-C)] [1]	HDL-C in serum [1] [mg/dL]	LPO in serum [1] [nmol/mL]	PL in serum [1] [mg/dL]	TC in serum [1] [mg/dL]	TG in serum [1] [mg/dL]	change in vivo at 1 % in diet ([1]; read-out: AI % of diff.) [%]	change in vivo at 1 % in diet ([1]; read-out: HDL-C % of diff.) [%]	change in vivo at 1 % in diet ([1]; read-out: LPO % of diff.) [%]	change in vivo at 1 % in diet ([1]; read-out: PL % of diff.) [%]	change in vivo at 1 % in diet ([1]; read-out: TG % of diff.) [%]	AI Diff. [1]	HDL-C Diff. [1]	LPO Diff. [1] [nmol/mL]	Body weight during feed period, 1st day [2] [g]	Body weight during feed period, 8th day [2] [g]	Body weight during feed period, 15th day [2] [g]	Body weight during feed period, 22nd day [2] [g]	Body weight during feed period, 28th day [2] [g]	Body weight just before blood sampling, 29th day [2] [g]	further results
CCC(=Cc1ccc(O)cc1)C(=O)OC1CCC23CC24CCC2(C)C(C(C)CCC=C(C)C)CCC2(C)C4CCC3C1(C)C (stereo not drawn) [Example 130, cycloartenyl ester of 4-hydroxy-α-ethylcinnamic acid]	8.586	21.0	2.07	107.2	201.3	53.4	-60.5	55.6	-26.6	-23.5	-5.5	-13.17	+7.5 mg/dl	-0.75	105 ± 3.3	144 ± 9.3	194 ± 18.1	245 ± 15.7	271 ± 18.0	258 ± 20.2	PL Diff. [1]: -32.9 mg/dL; TC % of diff. [1]: -34.5%; TC Diff. [1]: -106.0 mg/dL; TG Diff. [1]: -3.1 mg/dL
CCCOc1cc(C=C(C)C(=O)OC2CCC34CC35CCC3(C)C(C(C)CCC=C(C)C)CCC3(C)C5CCC4C2(C)C)ccc1O (stereo not drawn) [Example 146, cycloartenyl ester of 4-hydroxy-3-propoxy-α-methylcinnamic acid]	7.479	23.4	2.02	97.6	198.4	51.4	-65.6	73.3	-28.4	-30.3	-9	-14.28	+9.9 mg/dl	-0.80	106 ± 5.9	149 ± 11.0	193 ± 17.5	243 ± 15.8	271 ± 20.2	258 ± 19.1	PL Diff. [1]: -42.5 mg/dL; TC % of diff. [1]: -38.1%; TC Diff. [1]: -108.9 mg/dL; TG Diff. [1]: -5.1 mg/dL
CC(C)=CCCC(C)C1CCC2(C)C3CCC4C(C)(C)C(OC(=O)C(C)=Cc5ccc(N)cc5)CCC45CC35CCC12C (stereo not drawn) [Example 205, Cycloartenyl ester of p-amino-α-methylcinnamic acid]	4.144	37.4	2.02	113.1	192.4	60.3									105 ± 3.7	142 ± 9.8	188 ± 13.2	238 ± 19.8	267 ± 20.4	256 ± 19.2	
C=C(CCC(C)C1CCC2(C)C3CCC4C(C)(C)C(OC(=O)C(C)=Cc5cc(N)ccc5OCCC)CCC45CC35CCC12C)C(C)C (stereo not drawn) [Example 197, 24-Methylenecycloartanyl ester of 5-amino-2-propoxy-α-methylcinnamic acid]	7.177	27.1	2.05	115.5	221.6	61.2									104 ± 3.4	142 ± 8.4	188 ± 13.6	239 ± 16.2	268 ± 20.8	257 ± 20.4	
COc1cc(C=CC(=O)OC2CCC34CC35CCC3(C)C(C(C)CCC=C(C)C)CCC3(C)C5CCC4C2(C)C)ccc1N (centres unmarked) [Example 177, Cycloartenyl ester of 4-amino-3-methoxycinnamic acid]	6.554	32.5	2.29	125.8	245.5	63.1									104 ± 3.9	142 ± 9.6	187 ± 12.8	238 ± 21.2	267 ± 25.2	256 ± 27.1	
COc1cc(C=C(C)C(=O)OC2CCC34CC35CCC3(C)C(C(C)CCC(C)=C(C)C)CCC3(C)C5CCC4C2(C)C)ccc1O (stereo not drawn) [Example 116, cyclobranyl ester of 4-hydroxy-3-methoxy-α-methylcinnamic acid]	1.282	61.4	2.11	97.4	140.1	54.0	-94.1	355	-25.2	-30.5	-10.8	-20.48	+47.9 mg/dl	-0.71	106 ± 5.9	146 ± 10.0	193 ± 17.5	244 ± 15.8	273 ± 20.4	260 ± 19.0	PL Diff. [1]: -42.7 mg/dL; TC % of diff. [1]: -54.4%; TC Diff. [1]: -167.2 mg/dL; TG Diff. [1]: -6.1 mg/dL; HDL-C rise compared with normal diet group [1]: remarkable rises
CC(=Cc1cccc(N)c1)C(=O)OC1CCC23CC24CCC2(C)C(C(C)CCC(C)=C(C)C)CCC2(C)C4CCC3C1(C)C (stereo not drawn) [Example 212, Cyclobranyl ester of m-amino-α-methylcinnamic acid]	4.242	37.2	2.01	112.9	195.0	59.7									104 ± 3.3	143 ± 9.2	190 ± 18.6	239 ± 15.8	268 ± 21.4	257 ± 19.0	
COc1cc(C(=O)OC2CCC34CC35CCC3(C)C(C(C)CCC=C(C)C)CCC3(C)C5CCC4C2(C)C)ccc1N (centres unmarked) [Example 167, cycloartenyl ester of 4-amino-3-methoxy benzoic acid]	2.405	79.6	2.28	126.4	271.0	67.1									105 ± 3.4	143 ± 10.4	191 ± 18.4	241 ± 21.7	272 ± 20.8	259 ± 20.6	HDL-C rise compared with normal diet group [1]: remarkable rises
